Values of other authors in publication PMC9516332 (Frontiers in Oncology, 2022).
Where two headings read alike, the source gives them in different places.

Legend:
[1] = target: T1, panel of 255 wild-type kinases (Homo sapiens, UniProt O94806); conditions: kinase PKD3, 1 µmol/L single concentration, cited from earlier work
T1 sequence (O94806 1-890): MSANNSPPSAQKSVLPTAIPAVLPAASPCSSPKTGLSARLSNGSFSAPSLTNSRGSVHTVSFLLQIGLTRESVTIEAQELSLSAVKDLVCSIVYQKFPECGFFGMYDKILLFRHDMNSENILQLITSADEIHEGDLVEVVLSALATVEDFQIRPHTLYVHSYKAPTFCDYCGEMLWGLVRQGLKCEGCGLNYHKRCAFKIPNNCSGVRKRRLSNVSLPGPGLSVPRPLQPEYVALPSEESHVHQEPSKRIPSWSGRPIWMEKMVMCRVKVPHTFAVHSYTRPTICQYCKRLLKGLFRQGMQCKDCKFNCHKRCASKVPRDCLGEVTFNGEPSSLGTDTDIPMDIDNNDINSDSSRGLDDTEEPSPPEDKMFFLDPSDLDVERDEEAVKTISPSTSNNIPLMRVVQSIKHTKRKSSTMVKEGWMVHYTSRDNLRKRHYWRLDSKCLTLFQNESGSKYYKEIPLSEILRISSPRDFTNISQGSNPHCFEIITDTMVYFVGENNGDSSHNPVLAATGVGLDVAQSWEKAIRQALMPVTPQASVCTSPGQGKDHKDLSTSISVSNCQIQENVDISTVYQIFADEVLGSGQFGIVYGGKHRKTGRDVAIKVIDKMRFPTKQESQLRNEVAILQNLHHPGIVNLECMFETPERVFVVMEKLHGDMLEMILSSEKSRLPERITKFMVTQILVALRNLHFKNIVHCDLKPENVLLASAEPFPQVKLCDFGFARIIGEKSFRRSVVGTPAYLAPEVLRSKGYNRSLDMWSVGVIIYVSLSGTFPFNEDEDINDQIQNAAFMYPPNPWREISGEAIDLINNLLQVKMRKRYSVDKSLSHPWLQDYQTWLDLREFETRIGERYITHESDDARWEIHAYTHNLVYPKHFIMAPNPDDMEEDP

[2] = target: panel of 255 wild-type kinases (Homo sapiens, UniProt Q16288); conditions: kinase TRKC, 1 µmol/L single concentration, cited from earlier work
[3] = target: panel of 255 wild-type kinases (Homo sapiens, UniProt P49761); conditions: kinase CLK3, 1 µmol/L single concentration, cited from earlier work
[4] = target: panel of 255 wild-type kinases (Homo sapiens, UniProt P22607); conditions: kinase FGFR3, 1 µmol/L single concentration, cited from earlier work
[5] = target: panel of 255 wild-type kinases (Homo sapiens, UniProt Q9HCP0); conditions: kinase CK1γ1, 1 µmol/L single concentration, cited from earlier work
[6] = target: panel of 255 wild-type kinases (Homo sapiens, UniProt Q00534); conditions: CDK6/CycD3 kinase assay, 1 µmol/L single concentration, cited from earlier work
[7] = target: panel of 255 wild-type kinases (Homo sapiens, UniProt O75116); conditions: kinase ROCK2, 1 µmol/L single concentration, cited from earlier work
[8] = target: panel of 255 wild-type kinases (Homo sapiens, UniProt P19784); conditions: kinase CK2α2/β, 1 µmol/L single concentration, cited from earlier work
[9] = target: panel of 255 wild-type kinases (Homo sapiens, UniProt P06241); conditions: kinase FYN [isoform a], 1 µmol/L single concentration, cited from earlier work
[10] = target: panel of 255 wild-type kinases (Homo sapiens, UniProt P29597); conditions: kinase TYK2, 1 µmol/L single concentration, cited from earlier work
[11] = target: panel of 255 wild-type kinases (Homo sapiens, UniProt P07332); conditions: kinase FES, 1 µmol/L single concentration, cited from earlier work
[12] = target: panel of 255 wild-type kinases (Homo sapiens, UniProt P50613); conditions: CDK7/CycH/MAT1 kinase assay, 1 µmol/L single concentration, cited from earlier work
[13] = target: panel of 255 wild-type kinases (Homo sapiens, UniProt O94804); conditions: kinase LOK, 1 µmol/L single concentration, cited from earlier work
[14] = target: panel of 255 wild-type kinases (Homo sapiens, UniProt Q08345); conditions: kinase DDR1, 1 µmol/L single concentration, cited from earlier work
[15] = target: panel of 255 wild-type kinases (Homo sapiens, UniProt Q7KZI7); conditions: MARK2, 1 µmol/L single concentration, cited from earlier work
[16] = ref DOI: 10.1158/1535-7163.MCT-18-0877
[17] = ref DOI: 10.1371/journal.pone.0092146

Row | Structure (SMILES) | %-inhibition at 1 µmol/L, PKD3 [1, 16] [%] | %-inhibition at 1 µmol/L, TRKC [2, 16] [%] | %-inhibition at 1 µmol/L, CLK3 [3, 16] [%] | %-inhibition at 1 µmol/L, FGFR3 [4, 16] [%] | %-inhibition at 1 µmol/L, CK1γ1 [5, 16] [%] | %-inhibition CDK6/CycD3 [6, 16] [%] | %-inhibition at 1 µmol/L, ROCK2 [7, 16] [%] | %-inhibition at 1 µmol/L, CK2α2/β [8, 16] [%] | %-inhibition at 1 µmol/L, FYN [isoform a] [9, 16] [%] | %-inhibition at 1 µmol/L, TYK2 [10, 16] [%] | %-inhibition at 1 µmol/L, FES [11, 16] [%] | %-inhibition CDK7/CycH/MAT1 [12, 16] [%] | %-inhibition at 1 µmol/L, LOK [13, 16] [%] | %-inhibition at 1 µmol/L, DDR1 [14, 16] [%] | %-inhibition, MARK2 [15, 16] [%] | %-inhibition at 1 µmol/L, CLK3 [3, 17] [%] | %-inhibition at 1 µmol/L, FGFR3 [4, 17] [%] | %-inhibition at 1 µmol/L, ROCK2 [7, 17] [%] | %-inhibition at 1 µmol/L, TYK2 [10, 17] [%] | %-inhibition, MARK2 [15, 17] [%] | other results
1 | CC#CC(=O)N1CCC[C@H]1c1nc(-c2ccc(C(=O)Nc3ccccn3)cc2)c2c(N)nccn12 [acalabrutinib] | -2 | 11 | -15 | -1.31 | 0.334 | 3 | -2.29 | 10 | 6 | 13 | -6.35 | 5 | 3.37 | 8 | -9 |  |  |  |  |  | 
2 | CCc1cc2c(cc1N1CCC(N3CCOCC3)CC1)C(C)(C)c1[nH]c3cc(C#N)ccc3c1C2=O [alectinib] | 2.17 | 31 | -2.36 | 8 | -0.412 | -0.448 | 4.54 | -3 | 15 | 14 | 23 | -12 |  | 16 | 5.66 |  |  |  |  |  | 
3 | Cc1cc(Nc2ncc(Cl)c(Nc3ccccc3S(=O)(=O)C(C)C)n2)c(OC(C)C)cc1C1CCNCC1 [ceritinib] | 46 | 9 | 36 | 21 | 19 | 3.4 |  | -6 | 4 | 13 | 99 | 45 | 75 | 50 | 4 |  |  |  |  |  | 
4 | C[C@@H](Oc1cc(-c2cnn(C3CCNCC3)c2)cnc1N)c1c(Cl)ccc(F)c1Cl [crizotinib] |  |  |  |  |  |  |  |  |  |  |  |  |  |  |  | -5 | 43 | 4.25 | 21 | 26 | %-inhibition at 1 µmol/L, CK1γ1 [5, 17]: -3.52%; %-inhibition CDK6/CycD3 [6, 17]: 0.0624%; %-inhibition at 1 µmol/L, CK2α2/β [8, 17]: -10%; %-inhibition at 1 µmol/L, FYN [isoform a] [9, 17]: 42%; %-inhibition CDK7/CycH/MAT1 [12, 17]: 58%; %-inhibition at 1 µmol/L, LOK [13, 17]: 98%; %-inhibition at 1 µmol/L, DDR1 [14, 17]: 97%
5 | CC(C)(C)c1nc(-c2cccc(NS(=O)(=O)c3c(F)cccc3F)c2F)c(-c2ccnc(N)n2)s1 [dabrafenib] |  |  |  |  |  |  |  |  |  |  |  |  |  |  |  | 17 | 4.27 | 14 | 10 | 2.85 | %-inhibition at 1 µmol/L, PKD3 [1, 17]: 93%; %-inhibition at 1 µmol/L, TRKC [2, 17]: 81%; %-inhibition at 1 µmol/L, FES [11, 17]: 2.29%; %-inhibition at 1 µmol/L, DDR1 [14, 17]: 96%
6 | C=CC(=O)N1CCC[C@@H](n2nc(-c3ccc(Oc4ccccc4)cc3)c3c(N)ncnc32)C1 [ibrutinib] | 5.48 | 24 |  | 82 | 3.68 | 4.32 | 3.74 | -7 | 93 | 7 | 0.681 | 5 | 24 | 37 | 2.67 |  |  |  |  |  | 
7 | CO[C@@H]1[C@H](N(C)C(=O)c2ccccc2)C[C@H]2O[C@]1(C)n1c3ccccc3c3c4c(c5c6ccccc6n2c5c31)C(=O)NC4 [midostaurin] |  |  |  |  | -0.49 | 1.81 | 38 | 2 | 78 |  | 90 | 10 | 98 | 98 |  |  |  |  |  |  | 
8 | CC(=O)Nc1cccc(-n2c(=O)n(C3CC3)c(=O)c3c(Nc4ccc(I)cc4F)n(C)c(=O)c(C)c32)c1 [trametinib] |  |  |  |  |  |  |  |  |  |  |  |  |  |  |  | -0.0684 | -5.68 | 3 | 2.16 | -6 | %-inhibition at 1 µmol/L, PKD3 [1, 17]: 2.48%; %-inhibition at 1 µmol/L, TRKC [2, 17]: -7.43%; %-inhibition at 1 µmol/L, CK1γ1 [5, 17]: 0.211%; %-inhibition CDK6/CycD3 [6, 17]: -4.23%; %-inhibition at 1 µmol/L, CK2α2/β [8, 17]: -5.29%; %-inhibition at 1 µmol/L, FYN [isoform a] [9, 17]: 9%; %-inhibition at 1 µmol/L, FES [11, 17]: -1.55%; %-inhibition CDK7/CycH/MAT1 [12, 17]: -6%; %-inhibition at 1 µmol/L, LOK [13, 17]: 12%
